# Experimental data taken from patent US7365096B2, “Methods for selectively inhibiting Janus tyrosine kinase 3 (Jak3)” (Board of Regents, The University of Texas System, priority 2002, dated 2008).
# Assays:
# [1] = system: LEW donor or third-party BUF heart allografts; assay: Transplantation tolerance: heart allograft challenge of long-term surviving recipients; format: in vivo, rat; conditions: recipients made tolerant with NC1153; n=3
# Method: ACI rat recipients of LEW kidney allografts were treated for 14 days with NC1153 delivered by daily oral gavage. […] ACI rat recipients of LEW kidney allografts were treated for 7 days and thereafter 3×/week up to 90 days with 160 mg/kg NC1153 delivered by daily oral gavage. […] The mechanism of tolerance was examined when irradiated (400 rads) ACI recipients of LEW heart allografts were adoptively transferred with 30×10^6 purified T cells from tolerant recipients.
# [2] = Kidney function and lipid metabolism in rats on low-salt diet (FIGS. 11A-F); format: in vivo, rat; conditions: 160 mg/kg oral gavage, 14 day therapy
# Yes = Yes (Homo sapiens, UniProt P07947); assay: Kinase substrate phosphorylation (FIG. 9C); format: biochemical; conditions: 10 or 50 μM
# Chain of Yes (P07947 whole entry, species assumed): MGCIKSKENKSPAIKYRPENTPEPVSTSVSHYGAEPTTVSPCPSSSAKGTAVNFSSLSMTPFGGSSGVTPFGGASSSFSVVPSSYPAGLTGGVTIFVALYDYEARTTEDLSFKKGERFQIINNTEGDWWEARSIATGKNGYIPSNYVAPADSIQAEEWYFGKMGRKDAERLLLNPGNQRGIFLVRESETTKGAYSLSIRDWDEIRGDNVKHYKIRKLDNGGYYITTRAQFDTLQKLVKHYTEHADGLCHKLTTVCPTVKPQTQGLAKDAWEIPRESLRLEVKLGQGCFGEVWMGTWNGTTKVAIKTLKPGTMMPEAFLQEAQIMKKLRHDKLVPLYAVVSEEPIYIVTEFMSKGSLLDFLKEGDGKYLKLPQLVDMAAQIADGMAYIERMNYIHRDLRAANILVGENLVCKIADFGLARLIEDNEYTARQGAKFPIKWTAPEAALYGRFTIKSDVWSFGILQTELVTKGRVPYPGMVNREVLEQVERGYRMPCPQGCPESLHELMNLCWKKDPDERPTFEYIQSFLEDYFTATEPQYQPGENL
# Method: (§1) Non-Jak3 mediated NfκB activation by TNF-α was not affected within the same treatment set (lower panel). […] Prolactin [PRL] (+) or (−) indicates whether the cells were stimulated with prolactin with Jak2 activation. Phosphotyrosine Western blots detect Jak2-Stat5 activation but no inhibition by 649641P (NC1153). […] 649641P (NC1153) was tested at 10 (open bars) or 50 μM (filled bars) to block growth factor tyrosine kinases (FGFR3 and PDGFRα), Src family tyrosine kinases (Src, Fyn, Lck, Yes, Zap70) or serine threonine kinases (PKC and PKA) phosphorylation of a substrate. The activity of the control is plotted as a dashed line.
# (§2) In FIG. 9A, it can be seen that NC1153 inhibits Jak3 driven transcription factor-Stat5a/b in PHA activated T-cells treated with increasing concentrations of NC1153 in a dose dependent manner as measured via EMSA analysis (upper panel). The lane identified as “cold compete” contains unlabeled probe. However, non-Jak3 mediated NfκB activation (lower panel) by TNF-α was not affected within the same treatment set. […] Rat Nb2 cells were treated with increasing concentration of NC1153 and then stimulated with prolactin. Phosphotyrosine Western blots detect activation but no inhibition by NC1153. […] Activity of the control is plotted as a dashed line.
# PDGFRα = PDGFRα (Homo sapiens, UniProt P16234); assay: Kinase substrate phosphorylation (FIG. 9C); format: biochemical; conditions: 10 or 50 μM
# Chain of PDGFRα (P16234 24-1089, species assumed): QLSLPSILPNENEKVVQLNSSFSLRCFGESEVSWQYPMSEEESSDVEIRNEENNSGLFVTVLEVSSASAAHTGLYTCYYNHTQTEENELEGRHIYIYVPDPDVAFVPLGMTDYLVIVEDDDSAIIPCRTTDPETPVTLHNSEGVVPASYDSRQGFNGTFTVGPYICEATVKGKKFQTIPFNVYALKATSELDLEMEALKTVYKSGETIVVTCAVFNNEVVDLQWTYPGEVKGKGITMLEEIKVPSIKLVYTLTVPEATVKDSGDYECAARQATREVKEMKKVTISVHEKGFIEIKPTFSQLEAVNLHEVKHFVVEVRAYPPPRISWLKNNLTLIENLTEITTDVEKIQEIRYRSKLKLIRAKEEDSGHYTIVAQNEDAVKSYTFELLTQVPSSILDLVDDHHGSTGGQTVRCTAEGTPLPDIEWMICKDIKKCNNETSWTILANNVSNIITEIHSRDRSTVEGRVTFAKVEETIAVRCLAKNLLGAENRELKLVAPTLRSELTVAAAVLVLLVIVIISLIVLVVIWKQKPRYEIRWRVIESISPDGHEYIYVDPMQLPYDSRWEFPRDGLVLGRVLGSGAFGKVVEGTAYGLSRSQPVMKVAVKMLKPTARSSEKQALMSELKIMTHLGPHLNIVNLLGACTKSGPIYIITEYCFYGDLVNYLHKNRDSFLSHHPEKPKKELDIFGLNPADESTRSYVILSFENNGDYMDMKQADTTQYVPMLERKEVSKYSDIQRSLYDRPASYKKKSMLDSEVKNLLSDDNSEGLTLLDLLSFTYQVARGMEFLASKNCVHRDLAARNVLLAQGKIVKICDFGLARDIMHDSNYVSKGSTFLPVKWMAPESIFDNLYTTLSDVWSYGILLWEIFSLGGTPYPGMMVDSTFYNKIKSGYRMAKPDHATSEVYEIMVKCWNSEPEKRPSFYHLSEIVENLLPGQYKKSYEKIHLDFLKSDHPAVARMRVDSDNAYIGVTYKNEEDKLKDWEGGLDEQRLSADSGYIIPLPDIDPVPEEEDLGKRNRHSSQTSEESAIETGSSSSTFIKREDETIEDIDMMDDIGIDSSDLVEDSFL
# Method: as §1, §2
# PKC = assay: Kinase substrate phosphorylation (FIG. 9C); format: biochemical; conditions: 10 or 50 μM
# Method: as §1, §2
# PKA = assay: Kinase substrate phosphorylation (FIG. 9C); format: biochemical; conditions: 10 or 50 μM
# Method: as §1, §2
# Src = Src (Homo sapiens, UniProt P12931); assay: Kinase substrate phosphorylation (FIG. 9C); format: biochemical; conditions: 10 or 50 μM
# Chain of Src (P12931 whole entry, species assumed): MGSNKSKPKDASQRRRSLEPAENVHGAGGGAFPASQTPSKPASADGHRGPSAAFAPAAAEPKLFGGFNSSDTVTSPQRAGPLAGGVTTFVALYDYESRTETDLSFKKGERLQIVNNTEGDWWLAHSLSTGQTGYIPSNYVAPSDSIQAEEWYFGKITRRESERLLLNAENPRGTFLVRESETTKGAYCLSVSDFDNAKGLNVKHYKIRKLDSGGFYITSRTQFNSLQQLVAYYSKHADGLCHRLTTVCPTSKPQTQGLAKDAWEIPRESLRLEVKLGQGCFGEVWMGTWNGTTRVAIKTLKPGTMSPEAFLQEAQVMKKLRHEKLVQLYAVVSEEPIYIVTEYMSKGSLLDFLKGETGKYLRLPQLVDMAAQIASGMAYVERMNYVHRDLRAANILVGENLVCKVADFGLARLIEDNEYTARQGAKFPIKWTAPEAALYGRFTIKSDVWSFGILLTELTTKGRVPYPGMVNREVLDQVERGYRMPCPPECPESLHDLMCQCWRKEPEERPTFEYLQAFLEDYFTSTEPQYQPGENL
# Method: as §1, §2
# FGFR3 = FGFR3 (Homo sapiens, UniProt P22607); assay: Kinase substrate phosphorylation (FIG. 9C); format: biochemical; conditions: 10 or 50 μM
# Chain of FGFR3 (P22607 23-806, species assumed): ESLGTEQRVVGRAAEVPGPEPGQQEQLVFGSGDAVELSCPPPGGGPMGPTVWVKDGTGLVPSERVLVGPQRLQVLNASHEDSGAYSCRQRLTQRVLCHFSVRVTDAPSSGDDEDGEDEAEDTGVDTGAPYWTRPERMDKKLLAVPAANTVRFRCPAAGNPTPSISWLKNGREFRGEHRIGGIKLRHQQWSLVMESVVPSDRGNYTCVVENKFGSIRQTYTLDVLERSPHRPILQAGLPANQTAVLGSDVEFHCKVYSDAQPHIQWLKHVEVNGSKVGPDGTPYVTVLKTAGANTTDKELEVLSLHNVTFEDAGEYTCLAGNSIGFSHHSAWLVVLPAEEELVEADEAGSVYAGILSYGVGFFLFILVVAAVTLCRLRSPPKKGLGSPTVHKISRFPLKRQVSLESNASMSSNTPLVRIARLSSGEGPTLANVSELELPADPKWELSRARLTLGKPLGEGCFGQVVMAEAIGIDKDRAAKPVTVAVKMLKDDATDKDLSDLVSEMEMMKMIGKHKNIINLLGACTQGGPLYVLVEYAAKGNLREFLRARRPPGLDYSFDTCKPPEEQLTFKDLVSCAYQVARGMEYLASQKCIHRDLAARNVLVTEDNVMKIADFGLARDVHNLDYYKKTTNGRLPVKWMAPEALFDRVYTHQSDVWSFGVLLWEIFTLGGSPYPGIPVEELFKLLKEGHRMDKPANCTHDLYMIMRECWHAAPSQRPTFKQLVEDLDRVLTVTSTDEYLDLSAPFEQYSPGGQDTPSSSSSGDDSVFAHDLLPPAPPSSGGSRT
# Method: as §1, §2
# Stat5a/b = assay: IL-2 activated Stat5a/b tyrosine phosphorylation in YT cells (Western blot); format: cell-based, human; conditions: phospho-Western blots
# Method: Solubilization of membrane proteins, immunoprecipitation, and Western blot analysis. Frozen cell pellets were thawed on ice and solubilized in 1% TX-100 lysis buffer (10^8 cells/ml) and clarified by centrifugation, as previously described.^16 For human T-cells, supernates were incubated rotating end over end for 2 hours at 4° C. with either 5 μl/ml polyclonal rabbit antisera raised against peptides derived from the unique COOH-termini of Jak3 (amino acid [a.a.] 1104-1124), carboxyl termini of human Stat5a (a.a. 775-794) or Stat5b (a.a. 777-787).^26 Ab and immunoprecipitated proteins were captured by incubation for 30 minutes with Protein A-Sepharose beads (Pharmacia, Piscataway, N.J.), sedimented for purification, and eluted by boiling in 2×SDS-sample buffer (20% Glycerol, 10% 2-Mercaptoethanol, 4.6% SDS, 0.004% Bromophenol blue in 0.125 M Tris pH 6.8) for 4 minutes. For phosphoMapk assays, approximately 25 μg of total cell lysate was dissociated in SDS-sample buffer and separated on 10% (all others on 7.5%) SDS-PAGE under reducing conditions. […]
compound,measurement,setting,value
CN(C)CC1CCCCCCCCCC(CN(C)C)C1=O (mixture of isomers) [649641P (NC1153)],survival of LEW donor heart allografts in long-term surviving recipients,[1],> 100 days
same,survival of third-party BUF heart allografts in long-term surviving recipients,[1],7.0±1.0 days
same,"nephrotoxicity and lipid metabolism (serum creatinine, clearance, cholesterol, triglycerides, LDL, HDL)",[2],is not nephrotoxic and does not affect lipid metabolism
same,Yes phosphorylation of a substrate,Yes,fails to affect the activity
same,Yes phosphorylation of a substrate,Yes; listed as NC1153,fails to affect activity
same,PDGFRα phosphorylation of a substrate,PDGFRα,fails to affect the activity
same,PDGFRα phosphorylation of a substrate,PDGFRα; listed as NC1153,fails to affect activity
same,PKC phosphorylation of a substrate,PKC,fails to affect the activity
same,PKC phosphorylation of a substrate,PKC; listed as NC1153,fails to affect activity
same,PKA phosphorylation of a substrate,PKA,fails to affect the activity
same,PKA phosphorylation of a substrate,PKA; listed as NC1153,fails to affect activity
same,Src phosphorylation of a substrate,Src,fails to affect the activity
same,Src phosphorylation of a substrate,Src; listed as NC1153,fails to affect activity
same,FGFR3 phosphorylation of a substrate,FGFR3,fails to affect the activity
same,FGFR3 phosphorylation of a substrate,FGFR3; listed as NC1153,fails to affect activity
same,tyrosine phosphorylation of Stat5a/b,Stat5a/b,inhibited tyrosine phosphorylation
